Reference: publication PMC11913021 (Journal of Medicinal Chemistry, 2024)
Residue numbers refer to the chain shown, from its start.

Tests used:
LLC lung cancer cells = assay: LLC tumor model in immune-deficient nude mice; assay type: in vivo, mouse; conditions: immune-deficient nude mice injected with LLC cells
L425A mutant PLD1 = molecular target: T1, L425A mutant PLD1 (Homo sapiens, UniProt Q13393, L425A); assay: PLD activity assay in L425A mutant PLD1-transfected cells; assay type: cell-based
T1 sequence (Q13393 1-1036 isoform Q13393-2 L425A): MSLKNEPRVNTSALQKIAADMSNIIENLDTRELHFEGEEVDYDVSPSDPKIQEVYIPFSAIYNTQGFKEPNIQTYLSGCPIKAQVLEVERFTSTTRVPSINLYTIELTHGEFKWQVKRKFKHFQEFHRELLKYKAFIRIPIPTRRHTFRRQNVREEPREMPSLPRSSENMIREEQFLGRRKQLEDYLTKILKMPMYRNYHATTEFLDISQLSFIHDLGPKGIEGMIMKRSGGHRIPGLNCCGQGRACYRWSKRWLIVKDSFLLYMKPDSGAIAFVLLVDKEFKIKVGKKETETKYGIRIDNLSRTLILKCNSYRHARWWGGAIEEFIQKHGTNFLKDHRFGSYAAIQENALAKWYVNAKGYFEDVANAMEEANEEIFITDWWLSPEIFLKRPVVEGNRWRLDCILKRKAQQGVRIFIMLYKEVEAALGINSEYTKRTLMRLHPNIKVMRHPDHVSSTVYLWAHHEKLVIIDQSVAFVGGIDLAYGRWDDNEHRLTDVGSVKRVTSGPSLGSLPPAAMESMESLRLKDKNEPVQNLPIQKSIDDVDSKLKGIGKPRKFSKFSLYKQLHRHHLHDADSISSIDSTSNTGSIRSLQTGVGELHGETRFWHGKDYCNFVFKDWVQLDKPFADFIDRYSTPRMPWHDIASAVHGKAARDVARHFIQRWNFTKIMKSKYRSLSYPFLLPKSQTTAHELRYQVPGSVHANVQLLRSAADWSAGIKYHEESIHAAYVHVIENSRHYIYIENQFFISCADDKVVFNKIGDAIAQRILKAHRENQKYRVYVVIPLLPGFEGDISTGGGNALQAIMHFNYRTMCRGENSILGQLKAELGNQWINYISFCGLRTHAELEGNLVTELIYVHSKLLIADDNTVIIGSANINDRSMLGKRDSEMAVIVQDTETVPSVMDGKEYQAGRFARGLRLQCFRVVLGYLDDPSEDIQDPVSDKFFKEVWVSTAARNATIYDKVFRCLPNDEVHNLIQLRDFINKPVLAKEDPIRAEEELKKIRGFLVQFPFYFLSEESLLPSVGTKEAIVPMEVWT

wild-type PLD1 = molecular target: T2, wild-type PLD1 (Homo sapiens, UniProt Q13393); assay: PLD activity assay in wild-type PLD1-transfected cells; assay type: cell-based
T2 sequence (Q13393 1-1036 isoform Q13393-2): T1 sequence (Q13393 1-1036 isoform Q13393-2 L425A) with A425L

[1] = Body weight of normal C57BL/6 mice without cancer cells; assay type: in vivo, mouse; conditions: oral, C57BL/6 without cancer cells, vs untreated

N-(3,5-Bis(trifluoromethyl)phenyl)-3-(1H-indol-3-yl)propanamide [3r]
tumor formation (LLC lung cancer cells): significantly suppressed
PLD activity (L425A mutant PLD1): significantly suppressed
PLD activity (wild-type PLD1): significantly suppressed
weight of the normal mice [1]: no effect
